Assay results as given in ChEMBL document CHEMBL3045647, “Synthesis, anti-microbial evaluation, and molecular modeling of new pyrazolo[3,4-d]pyrimidine derivatives” (2012).

Columns and labels:
Type in all cases: functional
Staphylococcus aureus [1] = assay: Antibacterial activity against Staphylococcus aureus isolated from minced cow meet at 100 ug/ml after 24 hr by agar well diffusion method; settings: read-out: IZ
Listeria monocytogenes [2] = assay: Antibacterial activity against Listeria monocytogenes isolated from mastitic cow milk at 100 ug/ml after 24 hr by agar well diffusion method; settings: read-out: IZ
Salmonella typhimurium [3] = assay: Antibacterial activity against Salmonella enterica subsp. enterica serovar Typhimurium isolated from mastitic cow milk at 100 ug/ml after 24 hr by agar well diffusion method; settings: read-out: IZ
Escherichia coli [4] = assay: Antibacterial activity against Escherichia coli O157:H7 isolated from poultry at 100 ug/ml after 24 hr by agar well diffusion method; settings: O157:H7, 24 h, read-out: IZ
Aspergillus flavus [5] = assay: Antifungal activity against Aspergillus flavus at 100 ug/ml after 48 to 72 hr by agar well diffusion method; settings: read-out: IZ
Candida albicans [6] = assay: Antifungal activity against Candida albicans at 100 ug/ml after 48 to 72 hr by agar well diffusion method; settings: read-out: IZ
Bacillus cereus [7] = assay: Antibacterial activity against Bacillus cereus at 100 ug/ml after 24 hr by agar well diffusion method; settings: read-out: IZ
Pseudomonas aeruginosa [8] = assay: Antibacterial activity against Pseudomonas aeruginosa minced cow meet at 100 ug/ml after 24 hr by agar well diffusion method; settings: read-out: IZ
Listeria monocytogenes [9] = assay: Antibacterial activity against Listeria monocytogenes isolated from mastitic cow milk at 10 ug/ml after 24 hr by agar well diffusion method; settings: read-out: IZ
Salmonella typhimurium [10] = assay: Antibacterial activity against Salmonella enterica subsp. enterica serovar Typhimurium isolated from mastitic cow milk at 10 ug/ml after 24 hr by agar well diffusion method; settings: read-out: IZ
Escherichia coli [11] = assay: Antibacterial activity against Escherichia coli O157:H7 isolated from poultry at 10 ug/ml after 24 hr by agar well diffusion method; settings: O157:H7, 24 h, read-out: IZ
Bacillus cereus [12] = assay: Antibacterial activity against Bacillus cereus at 10 ug/ml after 24 hr by agar well diffusion method; settings: read-out: IZ
Pseudomonas aeruginosa [13] = assay: Antibacterial activity against Pseudomonas aeruginosa minced cow meet at 10 ug/ml after 24 hr by agar well diffusion method; settings: read-out: IZ
Staphylococcus aureus [14] = assay: Antibacterial activity against Staphylococcus aureus minced cow meet at 10 ug/ml after 24 hr by agar well diffusion method; settings: read-out: IZ
Aspergillus flavus [15] = assay: Antifungal activity against Aspergillus flavus at 25 ug/ml after 48 to 72 hr by agar well diffusion method; settings: read-out: IZ
Candida albicans [16] = assay: Antifungal activity against Candida albicans at 25 ug/ml after 48 to 72 hr by agar well diffusion method; settings: read-out: IZ

Structure (SMILES)	zone of inhibition at 100 µg/mL (Staphylococcus aureus [1])	zone of inhibition at 100 µg/mL (Listeria monocytogenes [2])	zone of inhibition at 100 µg/mL (Salmonella typhimurium [3])	zone of inhibition at 100 µg/mL (Escherichia coli [4])	zone of inhibition at 100 µg/mL (Aspergillus flavus [5])	zone of inhibition at 100 µg/mL (Candida albicans [6])	zone of inhibition at 100 µg/mL (Bacillus cereus [7])	zone of inhibition at 100 µg/mL (Pseudomonas aeruginosa [8])	zone of inhibition at 10 µg/mL (Listeria monocytogenes [9])	zone of inhibition at 10 µg/mL (Salmonella typhimurium [10])	zone of inhibition at 10 µg/mL (Escherichia coli [11])	zone of inhibition at 10 µg/mL (Bacillus cereus [12])	zone of inhibition at 10 µg/mL (Pseudomonas aeruginosa [13])	zone of inhibition at 10 µg/mL (Staphylococcus aureus [14])	zone of inhibition at 25 µg/mL (Aspergillus flavus [15])	zone of inhibition at 25 µg/mL (Candida albicans [16])
Cc1nn(-c2ccccc2)c2c1C(c1ccc(Cl)cc1)n1c(s/c(=C\c3ccc(C#N)cc3)c1=O)=N2 (stereo not drawn)	28 mm	20 mm	15 mm	18 mm	8 mm	9 mm	22 mm	18 mm								
Cc1nn(-c2ccccc2)c2c1c(-c1ccc(Cl)cc1)nc1nncn12	14 mm	20 mm	13 mm	10 mm	0 mm	18 mm	22 mm	12 mm								
Cc1nn(-c2ccccc2)c2nc(S)nc(-c3ccc(Cl)cc3)c12	18 mm	24 mm	12 mm	0 mm	0 mm	29 mm	22 mm	24 mm								
NC[C@H]1O[C@H](O[C@H]2[C@H](O)[C@@H](O[C@H]3O[C@H](CO)[C@@H](O)[C@H](N)[C@H]3O)[C@H](N)C[C@@H]2N)[C@H](N)C[C@@H]1O [TOBRAMYCIN]									20 mm	18 mm	20 mm	19 mm	18 mm	19 mm		
COc1ccc(C(=O)CSc2nc(-c3ccc(Cl)cc3)c3c(C)nn(-c4ccccc4)c3n2)cc1	16 mm	14 mm	13 mm	16 mm	12 mm	26 mm	18 mm	18 mm								
Cc1nn(-c2ccccc2)c2nc(NN)nc(-c3ccc(Cl)cc3)c12	16 mm	16 mm	13 mm	10 mm	0 mm	16 mm	26 mm	16 mm								
Cc1nn(-c2ccccc2)c2nc(S)nc(-c3cccs3)c12	14 mm	16 mm	14 mm	14 mm	10 mm	10 mm	18 mm	16 mm								
Cc1nn(-c2ccccc2)c2nc(SCC(=O)Cl)nc(-c3ccc(Cl)cc3)c12	14 mm	29 mm	11 mm	9 mm	9 mm	8 mm	10 mm	22 mm								
Cc1nn(-c2ccccc2)c2nc(-n3[nH]c(=O)c(C#N)c3-c3cccs3)nc(-c3ccc(Cl)cc3)c12	14 mm	32 mm	10 mm	0 mm	12 mm	20 mm	9 mm	14 mm								
OC(Cn1cncn1)(Cn1cncn1)c1ccc(F)cc1F [FLUCONAZOLE]															16 mm	17 mm
Cc1nn(-c2ccccc2)c2nc(-n3nc(N)c(C#N)c3-c3ccc(Cl)cc3)nc(-c3ccc(Cl)cc3)c12	12 mm	18 mm	9 mm	0 mm	0 mm	9 mm	12 mm	9 mm								
Cc1nn(-c2ccccc2)c2nc(-n3[nH]c(=O)c(C#N)c3-c3ccc(Cl)cc3)nc(-c3ccc(Cl)cc3)c12	0 mm	29 mm	9 mm	0 mm	12 mm	24 mm	24 mm	14 mm								
